# Test results reported in patent US20180339024A1, “PEPTIDES WITH ANTI-ANGIOGENIC, ANTI-LYMPHANGIOGENIC, AND ANTI-EDEMIC PROPERTIES AND NANOPARTICLE FORMULATIONS” (Asclepix Therapeutics, LLC, priority 2015, published 2018).
# “Also recorded” adds a separate entry of the source.
# Columns and labels:
# [1] = Size characterization, Malvern Zetasizer Nano ZS90; type: physicochemical; conditions: 1 mg/ml in water
# Procedure: N07 was suspended in water at 1 mg/ml and analyzed using a Malvern Zetasizer Nano ZS90. Z-average diameter and intensity-based size distribution were measured and recorded.
# [2] = tested on: vascular endothelial growth factor receptor (VEGFR); assay: P07 inhibition of VEGF receptor signaling in microvascular endothelial cells; type: cell-based; conditions: FIG. 1
# Excerpt: (§1) Integrins function as co-receptors for many growth factor receptors such as VEGFR, hepatocyte growth factor receptor (HGFR or c-met), insulin-like growth factor receptor (IGFR), and platelet derived growth factor receptor (PDGFR).
# [3] = tested on: hepatocyte growth factor receptor (HGFR or c-met); assay: P07 inhibition of HGF receptor signaling in microvascular endothelial cells; type: cell-based; conditions: FIG. 1
# Excerpt: as §1
# [4] = tested on: insulin-like growth factor receptor (IGFR); assay: P07 inhibition of IGF receptor signaling in microvascular endothelial cells; type: cell-based; conditions: FIG. 1
# Excerpt: as §1
# [5] = tested on: platelet derived growth factor receptor (PDGFR); assay: P07 inhibition of PDGF receptor signaling; type: cell-based
# Excerpt: as §1
# α5β1 integrin = α5β1 integrin (Homo sapiens, UniProt P05556+P08648); assay: Target identification of P07 (α5β1); type: binding
# Sequence of α5β1 integrin (P08648 42-894 limits assumed): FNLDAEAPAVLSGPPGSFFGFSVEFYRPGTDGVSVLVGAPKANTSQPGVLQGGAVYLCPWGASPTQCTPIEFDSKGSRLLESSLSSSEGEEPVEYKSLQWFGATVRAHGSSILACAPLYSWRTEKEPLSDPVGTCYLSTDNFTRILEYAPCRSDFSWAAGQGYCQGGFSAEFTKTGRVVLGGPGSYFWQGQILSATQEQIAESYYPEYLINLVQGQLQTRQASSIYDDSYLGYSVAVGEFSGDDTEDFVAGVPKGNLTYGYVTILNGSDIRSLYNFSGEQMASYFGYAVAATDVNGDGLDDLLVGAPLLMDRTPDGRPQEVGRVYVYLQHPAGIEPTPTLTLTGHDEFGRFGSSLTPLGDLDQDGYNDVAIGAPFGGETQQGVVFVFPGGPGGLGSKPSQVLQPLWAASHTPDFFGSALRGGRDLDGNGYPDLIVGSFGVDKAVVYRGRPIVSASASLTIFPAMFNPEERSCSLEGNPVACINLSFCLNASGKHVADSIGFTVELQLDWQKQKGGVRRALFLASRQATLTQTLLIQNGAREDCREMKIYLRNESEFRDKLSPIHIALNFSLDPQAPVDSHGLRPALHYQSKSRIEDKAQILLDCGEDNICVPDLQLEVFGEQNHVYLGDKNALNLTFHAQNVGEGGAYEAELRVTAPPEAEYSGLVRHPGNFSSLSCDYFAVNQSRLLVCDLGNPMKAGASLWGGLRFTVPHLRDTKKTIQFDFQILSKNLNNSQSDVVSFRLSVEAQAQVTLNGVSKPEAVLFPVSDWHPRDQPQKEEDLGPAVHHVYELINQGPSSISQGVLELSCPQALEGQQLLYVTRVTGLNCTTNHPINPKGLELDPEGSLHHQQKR
# Sequence of α5β1 integrin (P08648 895-1049 partner limits assumed): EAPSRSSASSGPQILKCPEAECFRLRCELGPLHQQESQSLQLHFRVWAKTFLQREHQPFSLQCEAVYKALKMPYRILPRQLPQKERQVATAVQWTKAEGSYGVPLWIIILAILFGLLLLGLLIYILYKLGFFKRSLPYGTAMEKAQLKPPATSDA
# Sequence of α5β1 integrin (P05556 21-798): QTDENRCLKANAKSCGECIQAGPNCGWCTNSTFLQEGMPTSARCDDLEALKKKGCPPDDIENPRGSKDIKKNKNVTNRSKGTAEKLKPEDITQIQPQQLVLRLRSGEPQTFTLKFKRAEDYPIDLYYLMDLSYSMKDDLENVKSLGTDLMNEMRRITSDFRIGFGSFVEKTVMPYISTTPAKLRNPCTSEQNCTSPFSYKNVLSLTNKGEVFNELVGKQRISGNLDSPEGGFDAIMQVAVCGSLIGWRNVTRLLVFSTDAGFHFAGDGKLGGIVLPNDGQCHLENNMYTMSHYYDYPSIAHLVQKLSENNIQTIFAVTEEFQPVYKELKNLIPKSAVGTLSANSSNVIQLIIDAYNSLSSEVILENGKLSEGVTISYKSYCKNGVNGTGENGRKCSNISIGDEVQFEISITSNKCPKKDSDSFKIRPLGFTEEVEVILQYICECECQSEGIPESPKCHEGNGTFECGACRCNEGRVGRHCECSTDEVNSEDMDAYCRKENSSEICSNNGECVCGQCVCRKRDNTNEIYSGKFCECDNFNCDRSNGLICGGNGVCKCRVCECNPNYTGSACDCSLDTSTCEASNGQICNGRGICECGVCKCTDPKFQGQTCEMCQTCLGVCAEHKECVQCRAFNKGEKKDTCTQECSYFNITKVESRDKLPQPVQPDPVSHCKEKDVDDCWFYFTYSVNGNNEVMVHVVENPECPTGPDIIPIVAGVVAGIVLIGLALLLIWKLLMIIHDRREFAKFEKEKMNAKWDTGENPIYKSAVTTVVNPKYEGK
# αVβ3 integrin = αVβ3 integrin (Homo sapiens, UniProt P05106+P06756); assay: Target identification of P07 (αVβ3); type: binding
# Sequence of αVβ3 integrin (P06756 31-889 limits assumed): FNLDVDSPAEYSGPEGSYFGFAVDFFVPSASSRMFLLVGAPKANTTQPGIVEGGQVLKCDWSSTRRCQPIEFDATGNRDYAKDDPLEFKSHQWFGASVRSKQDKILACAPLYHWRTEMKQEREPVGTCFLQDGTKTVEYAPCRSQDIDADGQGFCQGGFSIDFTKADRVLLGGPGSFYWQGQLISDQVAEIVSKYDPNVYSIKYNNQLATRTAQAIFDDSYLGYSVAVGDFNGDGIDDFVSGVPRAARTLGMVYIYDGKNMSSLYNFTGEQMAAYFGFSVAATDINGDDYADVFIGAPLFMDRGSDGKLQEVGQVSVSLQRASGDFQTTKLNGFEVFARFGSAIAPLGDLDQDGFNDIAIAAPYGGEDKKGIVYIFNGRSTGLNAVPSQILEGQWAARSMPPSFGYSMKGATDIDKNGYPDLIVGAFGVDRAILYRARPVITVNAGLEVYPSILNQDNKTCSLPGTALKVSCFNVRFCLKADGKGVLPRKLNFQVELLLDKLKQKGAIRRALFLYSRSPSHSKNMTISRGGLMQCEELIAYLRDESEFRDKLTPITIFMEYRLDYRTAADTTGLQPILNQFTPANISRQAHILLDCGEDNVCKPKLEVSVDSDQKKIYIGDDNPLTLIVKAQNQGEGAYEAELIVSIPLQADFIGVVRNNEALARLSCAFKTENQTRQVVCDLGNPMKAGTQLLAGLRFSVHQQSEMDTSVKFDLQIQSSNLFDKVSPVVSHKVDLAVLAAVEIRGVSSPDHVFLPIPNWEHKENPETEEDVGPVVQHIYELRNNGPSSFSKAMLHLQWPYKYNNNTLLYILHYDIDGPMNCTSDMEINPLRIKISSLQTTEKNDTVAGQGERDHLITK
# Sequence of αVβ3 integrin (P06756 891-1048 partner limits assumed): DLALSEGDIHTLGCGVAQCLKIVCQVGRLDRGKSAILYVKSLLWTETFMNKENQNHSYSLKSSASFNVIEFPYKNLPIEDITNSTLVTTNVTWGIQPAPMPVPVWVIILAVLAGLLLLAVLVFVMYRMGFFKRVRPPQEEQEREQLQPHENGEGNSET
# Sequence of αVβ3 integrin (P05106 27-788): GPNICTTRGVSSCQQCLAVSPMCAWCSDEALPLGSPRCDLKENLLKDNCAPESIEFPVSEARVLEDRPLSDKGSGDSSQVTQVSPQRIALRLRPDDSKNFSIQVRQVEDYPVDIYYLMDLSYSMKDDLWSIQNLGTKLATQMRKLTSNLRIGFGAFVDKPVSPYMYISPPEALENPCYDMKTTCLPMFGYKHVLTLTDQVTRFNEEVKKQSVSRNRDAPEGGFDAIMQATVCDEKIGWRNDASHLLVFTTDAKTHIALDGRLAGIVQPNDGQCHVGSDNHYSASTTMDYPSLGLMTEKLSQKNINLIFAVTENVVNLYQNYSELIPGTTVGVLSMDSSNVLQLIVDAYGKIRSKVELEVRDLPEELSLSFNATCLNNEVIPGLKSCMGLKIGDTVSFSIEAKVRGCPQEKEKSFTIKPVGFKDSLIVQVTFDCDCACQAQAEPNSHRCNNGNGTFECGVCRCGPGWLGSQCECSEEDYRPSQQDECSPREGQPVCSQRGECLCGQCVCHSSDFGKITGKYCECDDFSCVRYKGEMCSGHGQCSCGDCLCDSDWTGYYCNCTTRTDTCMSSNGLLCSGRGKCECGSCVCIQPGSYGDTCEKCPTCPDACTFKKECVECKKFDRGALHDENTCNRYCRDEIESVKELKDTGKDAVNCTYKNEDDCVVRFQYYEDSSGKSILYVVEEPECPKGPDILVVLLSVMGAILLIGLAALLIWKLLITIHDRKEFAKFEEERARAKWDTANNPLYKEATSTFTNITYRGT
# [6] = tested on: transgenic mouse over-expressing the human form of vascular endothelial growth factor (VEGF) in the retina; assay: Vascular leakage and retinal detachment in transgenic mouse over-expressing human VEGF in the retina; type: in vivo
# Excerpt: The vascular leakage in this model is so severe that the blood that pools behind the retina causes retinal detachment.
# [7] = tested on: rabbit eye, human VEGF induced leakage; assay: VEGF induced vascular leakage (edema) model in the rabbit eye; type: in vivo; conditions: about 50 μg P07 in the eye prior to VEGF injection, fluorescein i.v. 3 days after VEGF, FIG. 3
# Procedure: P07 was also tested in a model of edema in the rabbit eye. In this model human VEGF was injected directly into the eye causing the local vasculature to be leaky. The extent of this leak was assessed by measuring the amount of fluorescence in the eye resulting from the leakage of sodium fluorescein administered intravenously 3 days after VEGF injection.
# [8] = tested on: VEGF induced neovascularization and leakage; assay: Mouse models of retinal and choroidal neovascularization and vascular leakage; type: in vivo
# [9] = tested on: orthotopic triple-negative breast cancer (TNBC) xenografts; assay: Orthotopic triple-negative breast cancer xenografts; type: in vivo
# [10] = tested on: small cell lung cancer (SCLC) xenografts; assay: Small cell lung cancer xenografts; type: in vivo; conditions: not shown
# glioblastoma xenografts = assay: Glioblastoma xenografts; type: in vivo; conditions: not shown
Substance,PDI [1],Z-Average [1],inhibition of signaling from VEGFR [2],inhibition of signaling from HGFR (c-met) [3],inhibition of signaling from IGFR [4],inhibition of signaling from PDGFR [5],identified target: α5β1 integrin (α5β1 integrin),identified target: αVβ3 integrin (αVβ3 integrin),vascular leakage [6],retinal detachment ([6]; FIG. 2),vascular leakage (sodium fluorescein fluorescence in the eye) [7],VEGF induced neovascularization and leakage [8],growth of orthotopic TNBC xenografts ([9]; FIG. 4),tumor vasculature / neovascularization in orthotopic TNBC xenografts ([9]; FIG. 5),growth of SCLC xenografts [10],growth of glioblastoma xenografts (glioblastoma xenografts)
PLGA-PEG-P07: nanoparticles made completely of PLGA-PEG-P07 conjugated polymer (LRRFSTAPFAFIDINDVINF),0.29,77.59 ± 2.65 nm·days,,,,,,,,,,,,,,
LRRFSTAPFAFIDINDVINF [P07],,,inhibit signaling,inhibit signaling,inhibit signaling,inhibit signaling,identified to be the α5β1 and αVβ3 integrins,identified to be the α5β1 and αVβ3 integrins,inhibit vascular leakage,almost completely blocked retinal detachment,dramatically inhibited,strongly inhibits,inhibits the growth; also recorded: dose dependent manner,dramatically diminished vasculature; also recorded: inhibits neovascularization,inhibits the growth,inhibits the growth
